Reference: PMC11822212, “High-throughput screening identifies Aurora kinase B as a critical therapeutic target for Merkel cell carcinoma” (Nature Communications, 2025)
Several values for one entry are separate records, joined by “and”; a condition that tells them apart may be missing. Equal values may be shown once. Read-outs that look alike come from different tables or passages of the source.

Legend:
[1] = system: six MCC cell lines and four control cell lines; assay: qHTS cell viability, all 10 cell lines screened; type: cell-based
[2] = system: VN-MCC cell lines (MCC13, MCC26, UISO); assay: qHTS cell viability, VN-MCC cell lines as a group (mean AUC, VN.MCC.avg); type: cell-based, human
MKL-1 cells (VP-MCC) = assay: qHTS cell viability (CellTiter-Glo, 72 h; primary and follow-up small molecule screen); type: cell-based, human
[3] = system: MCC cell lines (WAGA, MKL-1, MKL-2, MCC13, MCC26, UISO); assay: qHTS cell viability, all six MCC cell lines as a group (mean AUC, MCC.avg); type: cell-based, human
CRL-7250 cells = assay: qHTS cell viability (CellTiter-Glo, 72 h; primary screen), control cell line; type: cell-based
MCC26 cells (VN-MCC) = assay: qHTS cell viability (CellTiter-Glo, 72 h; primary and follow-up small molecule screen); type: cell-based, human
HACAT cells = assay: qHTS cell viability (CellTiter-Glo, 72 h; primary screen), control cell line; type: cell-based, human
UISO cells (VN-MCC) = assay: qHTS cell viability (CellTiter-Glo, 72 h; primary and follow-up small molecule screen); type: cell-based, human
[4] = system: VP-MCC cell lines (WAGA, MKL-1, MKL-2); assay: qHTS cell viability, VP-MCC cell lines as a group (mean AUC, VP.MCC.avg); type: cell-based, human
HEK293T cells = assay: qHTS cell viability (CellTiter-Glo, 72 h; primary screen), control cell line; type: cell-based, human
[5] = system: control cell lines (HACAT, HEK293T, CRL-7250, NIH-3T3); assay: qHTS cell viability, control cell lines as a group (mean AUC, Control.avg); type: cell-based
NIH-3T3 cells = assay: qHTS cell viability (CellTiter-Glo, 72 h; primary screen), control cell line; type: cell-based, mouse
MKL-2 cells (VP-MCC) = assay: qHTS cell viability (CellTiter-Glo, 72 h; primary and follow-up small molecule screen); type: cell-based, human
MCC13 cells (VN-MCC) = assay: as above; type: cell-based, human
WAGA cells (VP-MCC) = assay: as above; type: cell-based, human
[6] = NPC library, therapeutic window: Control avg AUC minus MCC avg AUC
[7] = NPC library, mean AUC of VN-MCC cell lines
[8] = NPC library, therapeutic window: Control avg AUC minus VN-MCC avg AUC
[9] = NPC library, qHTS dose-response AUC, MKL1
[10] = NPC library, mean AUC of six MCC cell lines
[11] = NPC library, qHTS dose-response AUC, CRL7250 control
[12] = NPC library, qHTS dose-response AUC, HACAT control
[13] = NPC library, qHTS dose-response AUC, UISO
[14] = NPC library, mean AUC of VP-MCC cell lines
[15] = NPC library, therapeutic window: Control avg AUC minus VP-MCC avg AUC
[16] = NPC library, mean AUC of control cell lines
[17] = NPC library, qHTS dose-response AUC, NIH3T3 control
[18] = NPC library, qHTS dose-response AUC, MKL2
[19] = NPC library, qHTS dose-response AUC, MCC13
[20] = NPC library, qHTS dose-response AUC, WAGA

## COc1c(C)c2c(c(O)c1C/C=C(\C)CCC(=O)OCCN1CCOCC1)C(=O)OC2 [Mycophenolate mofetil]
[1]; [6]
  Control-MCC: 144.144
[2]; Control AUC minus VN-MCC AUC
  Control-VN-MCC: 24.7903
[2]; [7]
  VN-MCC_Avg_AUC: 375.798
[2]; [8]
  Control-VN-MCC: 24.7903
MKL-1 cells (VP-MCC); [9]
  MKL1_AUC: 148.352
MKL-1 cells (VP-MCC); follow-up screen, MKL-1, replicate 1
  Area under the dose-response curve (AUC) MKL-1 Replicate 1: 342.8
MKL-1 cells (VP-MCC); follow-up screen, MKL-1, replicate 2
  Area under the dose-response curve (AUC) MKL-1 Replicate 2: 365.2
MKL-1 cells (VP-MCC); follow-up screen, MKL-1, replicate 3
  Area under the dose-response curve (AUC) MKL-1 Replicate 3: 378.9
[3]; NPC library, mean AUC of all 6 MCC cell lines
  MCC_Avg_AUC: 256.444
[3]; [10]
  MCC_Avg_AUC: 256.444
CRL-7250 cells; [11]
  CRL7250_AUC: 396.679
MCC26 cells (VN-MCC); NPC library, qHTS dose-response AUC, MCC26
  MCC26_AUC: 393.051
MCC26 cells (VN-MCC); follow-up screen; MCC26; replicate 1
  Area under the dose-response curve (AUC) MCC26 Replicate 1: 381.3
MCC26 cells (VN-MCC); follow-up screen; MCC26; replicate 2
  Area under the dose-response curve (AUC) MCC26 Replicate 2: 385.2
MCC26 cells (VN-MCC); follow-up screen; MCC26; replicate 3
  Area under the dose-response curve (AUC) MCC26 Replicate 3: 373.0
HACAT cells; [12]
  HACAT_AUC: 439.79
UISO cells (VN-MCC); [13]
  UISO_AUC: 380.141
UISO cells (VN-MCC); follow-up screen, UISO, replicate 1
  Area under the dose-response curve (AUC) UISO Replicate 1: 348.1
UISO cells (VN-MCC); follow-up screen, UISO, replicate 2
  Area under the dose-response curve (AUC) UISO Replicate 2: 378.4
UISO cells (VN-MCC); follow-up screen, UISO, replicate 3
  Area under the dose-response curve (AUC) UISO Replicate 3: 389.6
[4]; Control AUC minus VP-MCC AUC
  Control-VP-MCC: 263.498
[4]; [14]
  VP-MCC_Avg_AUC: 137.09
[4]; [15]
  Control-VP-MCC: 263.498
HEK293T cells; NPC library, qHTS dose-response AUC, HEK293T control
  HEK293T_AUC: 332.795
[5]; [16]
  Control_Avg_AUC: 400.588
NIH-3T3 cells; [17]
  NIH3T3_AUC: 433.09
MKL-2 cells (VP-MCC); [18]
  MKL2_AUC: 105.914
MKL-2 cells (VP-MCC); follow-up screen, MKL-2, replicate 1
  Area under the dose-response curve (AUC) MKL-2 Replicate 1: 325.5
MKL-2 cells (VP-MCC); follow-up screen, MKL-2, replicate 2
  Area under the dose-response curve (AUC) MKL-2 Replicate 2: 324.8
MKL-2 cells (VP-MCC); follow-up screen, MKL-2, replicate 3
  Area under the dose-response curve (AUC) MKL-2 Replicate 3: 367.3
MCC13 cells (VN-MCC); [19]
  MCC13_AUC: 354.203
MCC13 cells (VN-MCC); follow-up screen, MCC13, replicate 1
  Area under the dose-response curve (AUC) MCC13 Replicate 1: 377.4
MCC13 cells (VN-MCC); follow-up screen, MCC13, replicate 2
  Area under the dose-response curve (AUC) MCC13 Replicate 2: 383.7
MCC13 cells (VN-MCC); follow-up screen, MCC13, replicate 3
  Area under the dose-response curve (AUC) MCC13 Replicate 3: 412.3
WAGA cells (VP-MCC); [20]
  WAGA_AUC: 157.003
WAGA cells (VP-MCC); follow-up screen, WAGA, replicate 1
  Area under the dose-response curve (AUC) WAGA Replicate 1: 322.6
WAGA cells (VP-MCC); follow-up screen, WAGA, replicate 2
  Area under the dose-response curve (AUC) WAGA Replicate 2: 354.0
WAGA cells (VP-MCC); follow-up screen, WAGA, replicate 3
  Area under the dose-response curve (AUC) WAGA Replicate 3: 383.1

## CCN(CC)CCc1c[nH]c2ccccc12.O=C(O)/C=C/C(=O)O [N,N-Diethyltryptamine fumarate]
[1]
  Control-MCC: 41.0728
[2]
  Control-VN-MCC: 56.4273
  VN-MCC_Avg_AUC: 415.93
MKL-1 cells (VP-MCC)
  MKL1_AUC: 443.844
[3]
  MCC_Avg_AUC: 431.284
CRL-7250 cells
  CRL7250_AUC: 461.166
MCC26 cells (VN-MCC)
  MCC26_AUC: 402.623
HACAT cells
  HACAT_AUC: 490.224 and 490.225
UISO cells (VN-MCC)
  UISO_AUC: 405.6
[4]
  Control-VP-MCC: 25.7182
  VP-MCC_Avg_AUC: 446.639
HEK293T cells
  HEK293T_AUC: 459.326
[5]
  Control_Avg_AUC: 472.357
NIH-3T3 cells
  NIH3T3_AUC: 478.712
MKL-2 cells (VP-MCC)
  MKL2_AUC: 447.202
MCC13 cells (VN-MCC)
  MCC13_AUC: 439.565
WAGA cells (VP-MCC)
  WAGA_AUC: 448.87 and 448.871

## CCCN(CCC)CCc1c[nH]c2ccccc12.Cl [N,N-Dipropyltryptamine hydrochloride]
[1]
  Control-MCC: 58.5875
[2]
  Control-VN-MCC: 47.3665
  VN-MCC_Avg_AUC: 431.8
MKL-1 cells (VP-MCC)
  MKL1_AUC: 391.099
[3]
  MCC_Avg_AUC: 420.579
CRL-7250 cells
  CRL7250_AUC: 497.853
MCC26 cells (VN-MCC)
  MCC26_AUC: 415.779
HACAT cells
  HACAT_AUC: 490.19
UISO cells (VN-MCC)
  UISO_AUC: 424.523
[4]
  Control-VP-MCC: 69.8085
  VP-MCC_Avg_AUC: 409.358
HEK293T cells
  HEK293T_AUC: 447.306
[5]
  Control_Avg_AUC: 479.166
NIH-3T3 cells
  NIH3T3_AUC: 481.316
MKL-2 cells (VP-MCC)
  MKL2_AUC: 402.2
MCC13 cells (VN-MCC)
  MCC13_AUC: 455.096
WAGA cells (VP-MCC)
  WAGA_AUC: 434.773

## CNCc1ccccc1.Cl [N-Methylbenzylamine hydrochloride]
[1]; [6]
  Control-MCC: 42.2399
[2]; [7]
  VN-MCC_Avg_AUC: 489.399
[2]; [8]
  Control-VN-MCC: -18.0472
MKL-1 cells (VP-MCC); [9]
  MKL1_AUC: 390.814
[3]; [10]
  MCC_Avg_AUC: 429.112
CRL-7250 cells; [11]
  CRL7250_AUC: 502.537
MCC26 cells (VN-MCC); NPC library; qHTS dose-response AUC, MCC26
  MCC26_AUC: 480.435
HACAT cells; [12]
  HACAT_AUC: 476.463
UISO cells (VN-MCC); [13]
  UISO_AUC: 548.944
[4]; [14]
  VP-MCC_Avg_AUC: 368.825
[4]; [15]
  Control-VP-MCC: 102.527
HEK293T cells; NPC library; qHTS dose-response AUC, HEK293T control
  HEK293T_AUC: 408.972
[5]; [16]
  Control_Avg_AUC: 471.352
NIH-3T3 cells; [17]
  NIH3T3_AUC: 497.435
MKL-2 cells (VP-MCC); [18]
  MKL2_AUC: 343.012
MCC13 cells (VN-MCC); [19]
  MCC13_AUC: 438.819
WAGA cells (VP-MCC); [20]
  WAGA_AUC: 372.649
